# In patent publication US11028058B2, “Heterocyclic compounds as adenosine antagonists” (NUVATION BIO INC., priority 2017, dated 2021):
# Tests used:
# [1] = target: HEK-293 cells expressing human recombinant adenosine A2A receptor (Homo sapiens (Human), UniProt P29274); assay: cAMP assay, Assay 2 (Eu-cAMP tracer / ULight-anti-cAMP); assay type: cell-based; conditions: Assay 2
# Method: The functional activity of compounds was tested using one of the two assays to detect the present of cAMP. Activation of G-protein coupled receptors (such as A2A) results in activation of adenylcyclase which converts ATP into cAMP which is used as a downstream signaling molecule. Therefore, molecules which act as GPCR (or specifically A2A receptor) antagonists cause a decrease in intracellular cAMP concentration.
# Both assays used HEK-293 cells expressing human recombinant adenosine A2A receptor were grown prior to the test in media without antibiotic.
# Assay 2 (Table B2-2): 100 nL of test articles at 100× of final concentration were transferred to assay plate by Echo. Cells were washed twice with 5 mL of PBS […]. After aspirating the PBS and adding 1.5 mL versine, cells were incubated at 37° C. for 2-5 min. After centrifugation, 4 mL of medium was added and adjusted cell density to 5,000 cells/well with Stimulation Buffer. 10 μL of cells were aliquoted to the assay plate, centrifuged at 1000 rpm for 1 minute, and incubated for 60 minutes at room temperature. 5 μL 4×Eu-cAMP tracer solution and 5 μL 4×Ulight™-anti-cAMP solution were added to assay plate, followed by centrifugation and 60-minute incubation at room temperature. Plates were read on EnVision.
# [2] = target: human adenosine A2A membrane preparation (Homo sapiens (Human), UniProt P29274); assay: Adenosine A2A receptor radioligand binding assay (SPA beads, 3H-SCH 58261, 384 plate); conditions: for inhibition at 0.01 µM: read-out: A2a binding % inh @ 10 nM; for inhibition at 0.1 µM: read-out: A2a binding % inh @ 100 nM; for inhibition at 1 µM: read-out: A2a binding % inh @ 1000 nM; for inhibition at 0.001 µM: read-out: A2a binding % inh @ 1 nM
# Method: For the A2A adenosine receptor radioligand binding assay, the following modifications were made to the general protocol. GF/C filters (Perkin Elmer, 6005174), presoaked in 0.01% Brij for 2 h at room temperature were used. Filters were washed six times with 0.5 mL of ice-cold washing buffer (50 mM Tris pH 7.4) and 50 μL of Microscint 20 (Packard) was added in each well. The plates were then incubated for 15 min on an orbital shaker and then counted with a TopCount™ for 1 min/well. Another radioligand binding assay was used to evaluate the binding affinity for the adenosine A2A receptor assay was performed in duplicate in the wells of a 384 plate. Assay buffer contained DPBS 500 mM, MgCl2 0.1 mM, and 1% DMSO. Membrane-bead suspension was prepared by mixing 25.98 μL of human adenosine A2A membrane preparation (Perkin Elmer, RBHA2AM400UA) at 33.4 μg/mL, 28 μL of ADA at 20 μg/mL, and 932 μL of SPA beads at 3.33 mg/mL) and incubated the mixture for 20 min at room temperature. Mixed 20 μL of radiotracer (^3H-SCH 58261) at 15 nM to each well containing test articles at various concentrations and centrifuge the plate at 1000 rpm for 1 minute. Added 30 μL of the membraine-bead suspension to each well. Sealed the plates and incubated for 1 hr at room temperature with vigorous mixing on a plate mixer. Plates were read on Microbeta^2 (Perkin Elmer, 2450-0010).
# Chain of human adenosine A2A membrane preparation (P29274 whole entry): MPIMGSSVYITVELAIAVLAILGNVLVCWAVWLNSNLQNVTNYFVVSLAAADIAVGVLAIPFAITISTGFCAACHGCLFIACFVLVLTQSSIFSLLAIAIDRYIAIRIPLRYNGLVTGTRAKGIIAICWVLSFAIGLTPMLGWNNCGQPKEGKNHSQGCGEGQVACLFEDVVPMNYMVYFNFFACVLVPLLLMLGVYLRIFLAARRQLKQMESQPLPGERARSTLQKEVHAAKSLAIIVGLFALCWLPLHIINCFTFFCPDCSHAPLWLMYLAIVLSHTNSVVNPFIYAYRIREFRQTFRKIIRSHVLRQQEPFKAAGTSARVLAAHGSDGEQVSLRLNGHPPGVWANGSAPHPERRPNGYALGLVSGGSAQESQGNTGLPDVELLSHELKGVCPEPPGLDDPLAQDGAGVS
# Chain of HEK-293 cells expressing human recombinant adenosine A2A receptor (P29274 whole entry): as above
Compound,IC50 [1] [nM],inhibition at 0.01 µM [2] [%],inhibition at 0.1 µM [2] [%],inhibition at 1 µM [2] [%],inhibition at 0.001 µM [2] [%],IC50 ([2]; Table B1-2) [nM]
"Cc1n[nH]c(C)c1-c1nc(N)cnc1-c1ccc2ncccc2c1 [Compound 1.294, 6-(3,5-dimethyl-1H-pyrazol-4-yl)-5-(quinolin-6-yl)pyrazin-2-amine]",> 10000,–,–,–,–,–
"Cc1ccn(-c2nc(N)cnc2-c2cc(C)c3ncccc3c2)n1 [Compound 1.296, 6-(3-methyl-1H-pyrazol-1-yl)-5-(8-methylquinolin-6-yl)pyrazin-2-amine]",130,–,–,–,–,–
"Nc1cnc(-c2ccc3ncccc3c2)c(N2CCCC2)n1 [Compound 1.298, 6-(pyrrolidin-1-yl)-5-(quinolin-6-yl)pyrazin-2-amine]",> 10000,–,–,–,–,–
"Cn1ccc(-c2nc(N)cnc2-c2ccc3[nH]ncc3c2)n1 [Compound 1.299, 5-(1H-indazol-5-yl)-6-(1-methyl-1H-pyrazol-3-yl)pyrazin-2-amine]",1250,–,–,–,–,–
"Cc1ccn(-c2nc(N)cnc2-c2cc(C)c3[nH]ncc3c2)n1 [Compound 1.300, 5-(7-methyl-1H-indazol-5-yl)-6-(3-methyl-1H-pyrazol-1-yl)pyrazin-2-amine]",120,–,–,–,–,–
"Nc1cnc(-c2ccc3ncccc3c2)c(N2CCCC2=O)n1 [Compound 1.301, 1-(6-amino-3-(quinolin-6-yl)pyrazin-2-yl)pyrrolidin-2-one]",> 10000,–,–,–,–,–
"Cc1cnn(-c2nc(N)cnc2-c2cc(Cl)c3ncccc3c2)c1 [Compound 1.303, 5-(8-chloroquinolin-6-yl)-6-(4-methyl-1H-pyrazol-1-yl)pyrazin-2-amine]",573,–,–,–,–,–
"Cn1ccc(-c2nc(N)cnc2-c2cc(Cl)c3ncsc3c2)n1 [Compound 1.305, 5-(4-chlorobenzo[d]thiazol-6-yl)-6-(1-methyl-1H-pyrazol-3-yl)pyrazin-2-amine]",96,–,–,–,–,–
"Cc1ccc(-c2nc(N)c(C#N)nc2-c2ccc3ncccc3c2)o1 [Compound No. 1.281, 3-amino-5-(5-methylfuran-2-yl)-6-(quinolin-6-yl)pyrazine-2-carbonitrile]",–,78,88,80,–,–
"Cc1ccc(-c2nc(N)c(C#N)nc2-c2ccc3ncccc3c2)s1 [Compound No. 1.282, 3-amino-5-(5-methylthiophen-2-yl)-6-(quinolin-6-yl)pyrazine-2-carbonitrile]",–,74,82,79,–,–
"N#Cc1nc(-c2ccc3ncncc3c2)c(-c2ccccc2)nc1N [Compound No. 1.283, 3-amino-5-phenyl-6-(quinazolin-6-yl)pyrazine-2-carbonitrile]",–,63,83,95,–,–
"CC(=O)Nc1nc(-c2ccccc2)c(-c2ccc3ncccc3c2)nc1C#N [Compound No. 1.284, N-(3-cyano-6-phenyl-5-(quinolin-6-yl)pyrazin-2-yl)acetamide]",–,32,76,83,–,–
Nc1cnc(-c2cc(Cl)c3[nH]ncc3c2)c(-c2ccccc2)n1 [Compound No. 1.289],–,75,87,95,41,–
"Cc1cc(C)n(-c2nc(N)cnc2-c2ccc3ncccc3c2)n1 [Compound No. 1.291, 6-(3,5-dimethyl-1H-pyrazol-1-yl)-5-(quinolin-6-yl)pyrazin-2-amine]",–,0,0,–,0,–
"Cc1ccn(-c2nc(N)c(C#N)nc2-c2cc(Cl)c3ncccc3c2)n1 [Compound No. 1.292, 3-amino-6-(8-chloroquinolin-6-yl)-5-(3-methyl-1H-pyrazol-1-yl)pyrazine-2-carbonitrile]",–,93,95,–,50,2.4
"Nc1cnc(-c2ccc3ncccc3c2)c(-c2cc[nH]n2)n1 [Compound No. 1.293, 6-(1H-pyrazol-3-yl)-5-(quinolin-6-yl)pyrazin-2-amine]",–,32,31,–,28,–
